# Columns and labels:
# fungal tyrosinase = experiment: in vitro tyrosinase activity inhibition test; assay type: biochemical; settings: decrease in maximum dopachrome formed (OD 475 nm, plateau) vs without inhibitor; inhibitor 50 mol. % relative to tyrosine; pH 6.5, 25° C.
# Excerpt: According to this test, the quantity of dopachrome formed during the chain of reactions by which tyrosine is converted into melanins is monitored by visible spectrometry at 475 nm. These reactions are catalyzed in vitro by fungal tyrosinase in the presence of a reducing cosubstrate (for example L-dopa in a small quantity) to initiate the hydroxylation reaction of L-tyrosine into L-dopa. The L-dopa is then oxidized catalytically into dopaquinone and then into dopachrome, an intermediate formed prior to the nonenzymatic oxidation reactions that lead to formation of melanins.
# The inhibitor concentrations are established at 50 mol. % relative to the tyrosine concentration in the reaction medium.
# The effect of inhibition is expressed by the decrease in the maximum quantity of dopachrome formed (optical density value at 475 nm read from the plateau of the curve) relative to the quantity obtained in the absence of inhibitor.
# A--0.1 M phosphate buffer, pH=6.5 (Tween 20, 1%)
# B--Stock solution of L-tyrosine, 2×10^-3 M in A
# C--Stock solution of L-dopa, 10^-4 M in A
# D--Stock solution of fungal tyrosinase, 2400 units/ml, in A
# E--Stock solution of inhibitor, 10^-2 M in A (solutions C and D must be prepared on the day of the experiment).
# reference cell: 3 ml of A
# homogenize and equilibrate at 25° C.
# mix rapidly and observe kinetics by measuring absorbance at 475 nm as a function of time.
# melanocyte = settings: background statement; cited from earlier work
SMILES,% change in maximum dopachrome vs no inhibitor (fungal tyrosinase) [%],irritation and cytotoxicity to the melanocyte (melanocyte)
Cc1cc(O)c(CC(=O)O)cc1O,-66,–
COC(=O)Cc1cc(O)c(C)cc1O,-87,–
Cc1c(O)cc(CC(=O)O)c(O)c1C,-59,–
"Oc1ccc(O)cc1 [hydroquinone, reference compound]",-33,particularly irritating and cytotoxic to the melanocyte

# More lines, main results first:
% change in maximum dopachrome vs no inhibitor (fungal tyrosinase) [%],SMILES,irritation and cytotoxicity to the melanocyte (melanocyte)
-42,O=C(O)CCc1cc(O)ccc1O,–
-64,Cc1cc(O)c(CCC(=O)O)cc1O,–

# Source: patent US5585105A, “Utilization of derivatives of 2,5-dihydroxyphenylcarboxylic acids, their homologs, and their salts in preparation of a cosmetic or dermatological composition with a depigmenting action” (L'Oreal, priority 1991, dated 1996)
